Laboratory results taken from publication PMC9866728, “Dosing Methods to Enable Cell-Based In Vitro Testing of Complex Substances: A Case Study with a PAH Mixture” (Toxics, 2022).
Values joined by “and” are separate entries in the source; they are usually repeats but may differ in a detail not shown here. Identical values can stand only once. Like-named read-outs stand apart in the source and are kept apart here.

Key:
[1] = Table S1; ref PubChem; cited from earlier work
[2] = Recovery over time from exposure to cell culture media without cells (GC-MS/MS); type: physicochemical
[3] = Loading kinetics of silicone micro-O-rings from methanol PAH solution (GC-MS/MS); type: physicochemical
[4] = O-ring loading rate constant, larger O-rings; ref Smith et al. 2010 [24]; cited from earlier work
[5] = Smith et al. O-Rings; ref Smith et al. 2010 [24]; cited from earlier work
[6] = Protein binding: media-dissolved fraction (FMD) and unbound fraction (FUB) in cell culture media without cells (ultracentrifugation, GC-MS/MS)
[7] = MAF (400 ng/mL each PAH), one phase decay fit of nominal recovery
[8] = MAF (400 ng/mL each PAH), one phase decay fit of nominal recovery (text: ng/mL)
[9] = O-Rings (loaded in 10 µg/mL PAH solution), one phase association fit of nominal recovery
[10] = O-Rings, one phase association fit
[11] = O-Rings, one phase association fit (desorption into media)
[12] = Solvent Extract (DMSO, 15 ng/mL each PAH), one phase decay fit of nominal recovery
[13] = Solvent Extract (DMSO, 15 ng/mL each PAH), one phase decay fit of nominal recovery (text: ng/mL)
[14] = Solvent Extract, one phase decay fit
[15] = loading rate constant, one-phase association (h^-1), 10 µg/mL PAH mix in methanol
[16] = one-phase association fit of nominal Csilicone (µg/mL per Eq 1), 10 µg/mL PAH mix in methanol
[17] = one-phase association fit of nominal Csilicone, 10 µg/mL PAH mix in methanol, 0-24 h
[18] = one-phase association fit, micro-O-ring absorption

c1ccc2cc3ccccc3cc2c1 [Anthracene]
LogKow (PubChem) [1]: 4.45
Y0 [2, 7]: 398.5
Plateau [2, 8]: 49.04
K ([2]; MAF, one phase decay fit): 0.9206
Span ([2]; MAF, one phase decay fit): 349.4
Tau ([2]; MAF, one phase decay fit): 1.086
Plateau [2, 9]: 0.3725
Y0 [2, 9]: -0.1844
Half-time [2, 10]: 0.1723
Span [2, 10]: 0.5569
Tau [2, 10]: 0.2486
K [2, 11]: 4.022
Y0 [2, 12]: 14.66
Plateau [2, 13]: 2.703
K [2, 14]: 0.5624
Span [2, 14]: 11.96
Tau [2, 14]: 1.778
K Value [3, 15]: 27.2512
Plateau Value [3, 16]: 0.255
Y0 [3, 17]: 0
Half-time Value [3, 18]: 0.02544
Span Value [3, 18]: 0.255
Tau Value [3, 18]: 0.0367
Smith et al. 2010 K Value [4]: 1.82
K [5]: 2.3

c1ccc2c(c1)cc1ccc3cccc4ccc2c1c34 [Benzo[a]pyrene]
LogKow (PubChem) [1]: 6.13
Y0 [2, 7]: 391.4
Plateau [2, 8]: 203.9
K ([2]; MAF, one phase decay fit): 0.5026
Span ([2]; MAF, one phase decay fit): 187.5
Tau ([2]; MAF, one phase decay fit): 1.989
Plateau [2, 9]: 1.337
Y0 [2, 9]: 0.02292
Half-time [2, 10]: 1.658
Span [2, 10]: 1.314
Tau [2, 10]: 2.392
K [2, 11]: 0.418
Y0 [2, 12]: 15.28
Plateau [2, 13]: 6.176
K [2, 14]: 0.1275
Span [2, 14]: 9.105
Tau [2, 14]: 7.845
K Value [3, 15]: 33.8629
Plateau Value [3, 16]: 0.1047
Y0 [3, 17]: 0
Half-time Value [3, 18]: 0.02047
Span Value [3, 18]: 0.1047
Tau Value [3, 18]: 0.02953
Smith et al. 2010 K Value [4]: 1.32
K [5]: 0.57

c1ccc2c(c1)-c1cccc3cccc-2c13 [Fluoranthene]
LogKow (PubChem) [1]: 5.16
Y0 [2, 7]: 391.9
Plateau [2, 8]: 86.09
K ([2]; MAF, one phase decay fit): 0.2998
Span ([2]; MAF, one phase decay fit): 305.9
Tau ([2]; MAF, one phase decay fit): 3.336
Plateau [2, 9]: 0.9705
Y0 [2, 9]: -0.1202
Half-time [2, 10]: 0.594
Span [2, 10]: 1.091
Tau [2, 10]: 0.857
K [2, 11]: 1.167
Y0 [2, 12]: 14.59
Plateau [2, 13]: 2.835
K [2, 14]: 0.372
Span [2, 14]: 11.75
Tau [2, 14]: 2.688
K Value [3, 15]: 23.4013
Plateau Value [3, 16]: 0.3327
Y0 [3, 17]: 0
Half-time Value [3, 18]: 0.02962
Span Value [3, 18]: 0.3327
Tau Value [3, 18]: 0.04273
Smith et al. 2010 K Value [4]: 1.41
K [5]: 0.93

c1ccc2c(c1)ccc1ccccc12 [Phenanthrene]
LogKow (PubChem) [1]: 4.46
Y0 [2, 7]: 398.5
Plateau [2, 8]: 48.89
K ([2]; MAF, one phase decay fit): 0.9181
Span ([2]; MAF, one phase decay fit): 349.6
Tau ([2]; MAF, one phase decay fit): 1.089
Plateau [2, 9]: 0.3728
Y0 [2, 9]: -0.1954
Half-time [2, 10]: 0.1645
Span [2, 10]: 0.5682
Tau [2, 10]: 0.2373
K [2, 11]: 4.214
Y0 [2, 12]: 14.6
Plateau [2, 13]: 2.716
K [2, 14]: 0.502
Span [2, 14]: 11.89
Tau [2, 14]: 1.992
K Value [3, 15]: 29.7306
Plateau Value [3, 16]: 0.2434
Y0 [3, 17]: 0
Half-time Value [3, 18]: 0.02331
Span Value [3, 18]: 0.2434
Tau Value [3, 18]: 0.03364
ISTD Resp. Ratio, stock ([6]; 0.375 ug/mL DMSO extract, 1 hr exposure block, stock reference samples STOCK_R1-R3, raw GC-MS/MS response ratio to ISTD): 7.517 and 6.997 and 7.303
ISTD Resp. Ratio (Raw Data for FMD) ([6]; 0.375 ug/mL DMSO extract, 1 hr exposure, media-dissolved fraction, replicates DMSO_FMD_R1-R4, raw GC-MS/MS response ratio to ISTD): 0.8475 and 0.7152 and 0.8128 and 0.7589
ISTD Resp. Ratio (Raw Data for FUB) ([6]; 0.375 ug/mL DMSO extract, 1 hr exposure, unbound fraction, replicates DMSO_FUB_R1-R4, raw GC-MS/MS response ratio to ISTD): 0.02919 and 0.03368 and 0.0397 and 0.002786
ISTD Resp. Ratio, stock ([6]; 0.375 ug/mL DMSO extract, 24 hr exposure block, stock samples STOCK_R1-R3, GC-MS/MS area ratio to ISTD): 9.093 and 9.139 and 8.158
ISTD Resp. Ratio (Raw Data for FMD) ([6]; 0.375 ug/mL DMSO extract, 24 hr exposure, media-dissolved fraction samples, replicates DMSO_FMD_R2-R4, GC-MS/MS area ratio to ISTD): 0.2846 and 0.2622 and 0.2363
ISTD Resp. Ratio (Raw Data for FMD) ([6]; 0.375 ug/mL DMSO extract, 24 hr exposure, media-dissolved fraction, replicate DMSO_FMD_R1, raw GC-MS/MS response ratio to ISTD): 0.2681
ISTD Resp. Ratio (Raw Data for FUB) ([6]; 0.375 ug/mL DMSO extract, 24 hr exposure, unbound fraction samples, replicates DMSO_FUB_R1-R4, GC-MS/MS area ratio to ISTD): 0.01396 and 0.01643 and 0.01239 and 0.00394
ISTD Resp. Ratio (raw data for FMD) ([6]; 10 ug/mL MAF (MAF_1H_FMD), 1 hour exposure, replicates R1-R3): 58.1761 and 43.9105 and 63.6043
ISTD Resp. Ratio (raw data for FUB) ([6]; 10 ug/mL MAF (MAF_1H_FUB), 1 hour exposure, replicates R1-R3): 0.06932 and 0.09392 and 0.08269
ISTD Resp. Ratio, Raw Data for FMD (media-dissolved fraction) ([6]; 10 ug/mL MAF, 24 hour exposure, samples MAF_24H_FMD_R1-R3 (replicates), raw GC-MS/MS analyte/ISTD response ratio): 34.5977 and 34.7241 and 34.153
ISTD Resp. Ratio, Raw Data for FUB (unbound fraction) ([6]; 10 ug/mL MAF, 24 hour exposure, samples MAF_24H_FUB_R1-R3 (replicates), raw GC-MS/MS analyte/ISTD response ratio): 0.04313 and 0.02976 and 0.1769
ISTD Resp. Ratio (Raw Data for FMD) ([6]; 10 ug/mL micro-O-Rings, 1 hour exposure, media-dissolved fraction samples, replicates ORINGS_1H_FMD_R1-R3, GC-MS/MS area ratio to ISTD): 0.01581 and 0.07741 and 0.0739
ISTD Resp. Ratio (Raw Data for FUB) ([6]; 10 ug/mL micro-O-Rings, 1 hour exposure, unbound fraction samples, replicates ORINGS_1H_FUB_R1-R3, GC-MS/MS area ratio to ISTD): 0.004514 and 0.0003336 and 0.01406
ISTD Resp. Ratio (Raw Data for FMD) ([6]; 10 ug/mL micro-O-Rings, 24 hour exposure, media-dissolved fraction samples, replicate ORINGS_24H_FMD_R1, GC-MS/MS area ratio to ISTD): 0.01817
ISTD Resp. Ratio (raw data for FMD) ([6]; O-rings (ORINGS_24H_FMD), 24 hour exposure, media without cells, GC-MS/MS analyte/ISTD response ratio, replicates R2-R3): 0.001128 and 0.05584
ISTD Resp. Ratio (raw data for FUB) ([6]; O-rings (ORINGS_24H_FUB), 24 hour exposure, media without cells, GC-MS/MS analyte/ISTD response ratio, replicates R1-R3): 0.001509 and 0.006155 and 0.006123
ISTD Resp. Ratio, stock ([6]; STOCK_10_R1-R3 (replicates) of the block 10 ug/mL MAF, 24 hr exposure, raw GC-MS/MS analyte/ISTD response ratio): 241.043 and 253.185 and 249.851
ISTD Resp. Ratio (STOCK_10) ([6]; STOCK_10 reference samples of the 10 ug/mL MAF section, replicates R1-R3): 251.693 and 253.185 and 259.309
ISTD Resp. Ratio (STOCK_10) ([6]; STOCK_10 reference samples of the O-rings section, replicates R1-R3): 105.268 and 100.389 and 100.167
Smith et al. 2010 K Value [4]: 1.66
K [5]: 1.32

c1cc2ccc3cccc4ccc(c1)c2c34 [Pyrene]
Half-time [2]: 0.6521
Half-time Value [3]: 0.03121
K Value [3]: 22.209
Plateau Value [3]: 0.4017
Span Value [3]: 0.4017
Tau Value [3]: 0.04503
Y0 [3]: 0
Smith et al. 2010 K Value [4]: 1.35
K [5]: 1.04
